# According to patent EP3521435A1, “A HIGH STRINGENCY SELECTION SYSTEM FOR PROTEIN EXPRESSION IN PROLINE-AUXOTROPHIC CELLS” (Bayer AG, priority 2018, dated 2019):
# Tested on: CHO-K1 cells
# Assay: Flow cytometric analysis of GFP expression (MFI, high fluorescing cells) in stably selected cell populations
# Type: cell-based, Chinese hamster
# Details: for improvement of MFI as compared to Puromycin selected cultures / increase of the frequency of high fluorescing cells as compared to Puromycin selected cultures: DHP in proline-free medium
# Procedure: To efficiently test the impact of different procedures on improving selection stringency, experimental testing in stable cell populations was performed. As test molecules, enhanced green fluorescent protein (GFP) as well as a human IgG1 were chosen. CHO-K1 cells adapted to growth in suspension in defined medium were obtained from SAFC and cultivated in EX-CELL CD CHO Fusion medium (SAFC 14365C). Custom-made EX-CELL CD CHO Fusion medium without L-Proline (Pro) and without L-Ornithine (Orn) ("proline-free medium") was obtained from SAFC. The expression vector system was based on modified versions of "CET 1019 AS-puro-SceI" and "CET 1019 AD-puro-SceI" for GFP and human IgG1, respectively, from Merck-Millipore, containing the Puromycin selection marker (Puromycin N-acetyl-transferase) known to exert a high selection stringency. To minimize variations in cell populations derived from using different transfections or different vectors, the first series of experiments were conducted using vectors into which a P5CS expression cassette was cloned upstream of a UCOE element, in addition to the Puromycin selection marker present downstream of a gene of interest. This way, it was possible to pool different transfections using the same vector to obtain a common starting point, and split the mixture according to different selection conditions, minimizing any variations that are not due to selection conditions themselves. Expression of long and short isoform of murine P5CS (Protein: Delta-1-pyrroline-5-carboxylate synthase; Gene: Aldh18a1; UniProtKB accession number: Q9Z110-1 & Q9Z110-2) was driven by a SV40 promoter. A SV40 polyadenylation sequence was used at the 3' end of the gene. More details can be found in Table 1. Typically, CHO cells were cultivated in EX-CELL CD CHO Fusion medium containing 6 mM GlutaMAX (Thermo Fisher, 35050-38) ("CD-Fusion medium") at 37 °C with 5% CO2. Cells were grown to logarithmic phase under shaking conditions for transfections. 1e7 cells/cuvette were transfected using nucleofection (Amaxa Nucleofector II, following the manufacturer's recommendations) with 5 µg of linearized DNA. After transfection, cells were taken up in 1 ml medium and transferred into 1 well of a 6 well microtiter plate (MTP) already containing 1 ml medium. The cells were incubated for 24 h without shaking, after which 9 ml medium were added and cells were washed (either in standard or proline-free medium). Multiple transfections were pooled, if applicable. Cells were adjusted to 2e5 viable cells/ml and 10 ml were transferred to T-25 flasks. Reference cell populations were selected using 10 µg/ml Puromycin in CD-Fusion medium. For P5CS-based selection, EX-CELL CD CHO Fusion medium (custom-made, SAFC) containing 6 mM GlutaMAX without proline and without ornithine was used ("proline-free" or "CD-Fusion w/o Pro" medium), with or without additional selection pressure.
# Cell viability of the different populations was monitored over time. As soon as cell populations appeared to recover from selection pressure, cells were transferred to Shake Flask or TubeSpins for expansion in suspension under shaking conditions. Subsequently, stable cell populations transfected with IgG were seeded at 2e5 viable cells/ml for batch fermentation without selection pressure (i.e. standard CD-Fusion medium containing proline and no other selective agents). The cells were cultivated for 5-10 days, viable cell densities and productivity were monitored over time. IgG titers were determined using Poros A-HPLC method. Typically, final batch titers were recorded at a time point at which majority of cultures had around 70% viability. Stable cell populations transfected with GFP vector were subjected to analysis by flow cytometry using Guava easyCyte 8HT Benchtop Flow Cytometer (Millipore). 250 µl of cell culture were transferred to 96 MTP and washed with PBS. Dead cells were excluded from analysis using propidium iodide (PI). […]
# [1] = Table 11, day 19 post-transfection, pJF1555, CD-Fusion w/o Pro + 0.2 mM DHP
# [2] = Table 13, day 19 post-transfection, pJF1555, CD-Fusion w/o Pro + 0.05 mM DHP
# [3] = Table 13, day 19 post-transfection, pJF1555, CD-Fusion w/o Pro + 0.1 mM DHP
# [4] = Table 13, day 19 post-transfection, pJF1555, CD-Fusion w/o Pro + 0.2 mM DHP
# [5] = Table 13, day 19 post-transfection, pJF1555, CD-Fusion w/o Pro + 0.4 mM DHP
# [6] = day 22 post-transfection, pJF2055, CD-Fusion w/o Pro + 0.02 mM DHP
# [7] = day 22 post-transfection, pJF2055, CD-Fusion w/o Pro + 0.03 mM DHP
# [8] = day 22 post-transfection, pJF2055, CD-Fusion w/o Pro + 0.04 mM DHP
# [9] = day 22 post-transfection, pJF2055, CD-Fusion w/o Pro + 0.06 mM DHP
# [10] = day 22 post-transfection, pJF2055, CD-Fusion w/o Pro + 0.07 mM DHP
# [11] = day 22 post-transfection, pJF2055, CD-Fusion w/o Pro + 0.08 mM DHP
# [12] = day 22 post-transfection, pJF2303, CD-Fusion w/o Pro + 0.02 mM DHP
# [13] = day 22 post-transfection, pJF2303, CD-Fusion w/o Pro + 0.04 mM DHP
# [14] = day 22 post-transfection, pJF2303, CD-Fusion w/o Pro + 0.06 mM DHP
# [15] = day 22 post-transfection, pJF2303, CD-Fusion w/o Pro + 0.08 mM DHP
# [16] = day 22 post-transfection, pJF2303, CD-Fusion w/o Pro + 0.2 mM DHP
# [17] = day 22 post-transfection, pJF2303, CD-Fusion w/o Pro + 0.3 mM DHP
# [18] = day 22 post-transfection, pJF2303, CD-Fusion w/o Pro + 0.4 mM DHP
# [19] = day 22 post-transfection, pJF2303, CD-Fusion w/o Pro + 0.5 mM DHP
# [20] = day 29 post-transfection, pJF2460, CD-Fusion w/o Pro + 0.01 mM DHP
# [21] = day 29 post-transfection, pJF2460, CD-Fusion w/o Pro + 0.03 mM DHP
compound,measurement,setting,value
"O=C(O)[C@@H]1C=CCN1 [DHP, 3,4-Dehydro-L-Proline]",increase in MFI as compared to Puromycin-selected population,"0.2 mM DHP in proline-free medium, pJF1555, #4 vs #1 of Table 11",37%
same,increase of the frequency of high fluorescing cells,"0.2 mM DHP in proline-free medium, pJF1555, vs Puromycin-selected population",71%
same,improvement of MFI of the stable cell population,"0.4 mM DHP, pJF1555, Table 13",3 fold
same,increase of the frequency of high fluorescing cells,"0.4 mM DHP, pJF1555, Table 13",8.7-12.6 fold
same,Frequency of high fluorescing cells,[1],5.8%
same,Median Fluorescence Intensity (MFI) (yellow),[1],17880
same,Frequency of high fluorescing cells,[2],1.7%
same,Median Fluorescence Intensity (MFI) (yellow),[2],7599
same,Frequency of high fluorescing cells,[3],5.6%
same,Median Fluorescence Intensity (MFI) (yellow),[3],14267
same,Frequency of high fluorescing cells,[4],5.8%
same,Median Fluorescence Intensity (MFI) (yellow),[4],13748
same,Frequency of high fluorescing cells,[5],13.0%
same,Median Fluorescence Intensity (MFI) (yellow),[5],19806
same,sensitivity to DHP treatment of cultures transfected with pJF2055 relative to pJF2303,concentration ranges for DHP giving improvement,about 10 fold
same,Frequency of high fluorescing cells,[6],17.3%
same,Median Fluorescence Intensity (MFI) (yellow),[6],24032
same,Frequency of high fluorescing cells,[7],18.5%
same,Median Fluorescence Intensity (MFI) (yellow),[7],22607
same,Frequency of high fluorescing cells,[8],31.3%
same,Median Fluorescence Intensity (MFI) (yellow),[8],29703
same,Frequency of high fluorescing cells,[9],6.9%
same,Median Fluorescence Intensity (MFI) (yellow),[9],15210
same,Frequency of high fluorescing cells,[10],8.7%
same,Median Fluorescence Intensity (MFI) (yellow),[10],12393
same,Frequency of high fluorescing cells,[11],9.3%
same,Median Fluorescence Intensity (MFI) (yellow),[11],9617
same,Frequency of high fluorescing cells,[12],3.3%
same,Median Fluorescence Intensity (MFI) (yellow),[12],12080
same,Frequency of high fluorescing cells,[13],5.7%
same,Median Fluorescence Intensity (MFI) (yellow),[13],15503
same,Frequency of high fluorescing cells,[14],3.2%
same,Median Fluorescence Intensity (MFI) (yellow),[14],12536
same,Frequency of high fluorescing cells,[15],3.7%
same,Median Fluorescence Intensity (MFI) (yellow),[15],14603
same,Frequency of high fluorescing cells,[16],14.7%
same,Median Fluorescence Intensity (MFI) (yellow),[16],19163
same,Frequency of high fluorescing cells,[17],17.4%
same,Median Fluorescence Intensity (MFI) (yellow),[17],22030
same,Frequency of high fluorescing cells,[18],24.5%
same,Median Fluorescence Intensity (MFI) (yellow),[18],26155
same,Frequency of high fluorescing cells,[19],19.6%
same,Median Fluorescence Intensity (MFI) (yellow),[19],23616
same,Frequency of high fluorescing cells,[20],15.3%
same,Median Fluorescence Intensity (MFI) (yellow),[20],19951
same,Frequency of high fluorescing cells,[21],43.6%
same,Median Fluorescence Intensity (MFI) (yellow),[21],31838
same,improvement of MFI as compared to Puromycin selected cultures,"pJF2055, Table 26",up to 2.6 fold
same,increase of the frequency of high fluorescing cells as compared to Puromycin selected cultures,"pJF2055, Table 26",7.4-12.7 fold
same,improvement of MFI as compared to Puromycin selected cultures,"pJF2303, Table 26",up to 2.3 fold
same,increase of the frequency of high fluorescing cells as compared to Puromycin selected cultures,"pJF2303, Table 26",5.8-9.9 fold
same,improvement of MFI as compared to Puromycin selected cultures,"pJF2460, Table 28",up to 2.8 fold
same,increase of the frequency of high fluorescing cells as compared to Puromycin selected cultures,"pJF2460, Table 28",up to 19 fold
